Test results as given in the NIST ThermoML archive (doi:10.1021/acs.jced.5b00670).
± gives the expanded uncertainty stated by the source.

Columns and labels:
[1] = mn = molality of the nth substance listed, in mol/kg; settings: 298.15 K, 101.33 kPa, Liquid, Alternating current cell with electrodes
[2] = 298.15 K, 101.33 kPa, Liquid; for viscosity: Concentric cylinders viscometry; for mass density: Vibrating tube method

CCCC[P+](CCCC)(CCCC)CCCC.CS(=O)(=O)[O-] [tetrabutylphosphonium methanesulfonate] + CO
molar conductivity ([1]; m1 = 0.000912): 0.00826 ± 0.002 S·m2/mol | molar conductivity ([1]; m1 = 0.001456): 0.00793 ± 0.002 S·m2/mol | molar conductivity ([1]; m1 = 0.001998): 0.00769 ± 0.002 S·m2/mol | molar conductivity ([1]; m1 = 0.002473): 0.00752 ± 0.002 S·m2/mol | molar conductivity ([1]; m1 = 0.002947): 0.00737 ± 0.002 S·m2/mol | molar conductivity ([1]; m1 = 0.003599): 0.00721 ± 0.002 S·m2/mol | molar conductivity ([1]; m1 = 0.00425): 0.007 ± 0.002 S·m2/mol | molar conductivity ([1]; m1 = 0.004926): 0.00686 ± 0.002 S·m2/mol | molar conductivity ([1]; m1 = 0.005759): 0.0066 ± 0.002 S·m2/mol | molar conductivity ([1]; m1 = 0.006723): 0.00645 ± 0.002 S·m2/mol | molar conductivity ([1]; m1 = 0.007795): 0.0062 ± 0.002 S·m2/mol | molar conductivity ([1]; m1 = 0.008664): 0.00603 ± 0.002 S·m2/mol

C[N+](=O)[O-] [nitromethane]
viscosity [2]: 0.62 ± 0.021 mPa·s | mass density [2]: 1130.15 ± 1.8 kg/m3

CCCC[P+](CCCC)(CCCC)CCCC.CS(=O)(=O)[O-] [tetrabutylphosphonium methanesulfonate] + CC#N
molar conductivity ([1]; m1 = 0.000975): 0.0159 ± 0.002 S·m2/mol | molar conductivity ([1]; m1 = 0.001787): 0.0156 ± 0.002 S·m2/mol | molar conductivity ([1]; m1 = 0.002451): 0.0154 ± 0.002 S·m2/mol | molar conductivity ([1]; m1 = 0.003035): 0.0153 ± 0.002 S·m2/mol | molar conductivity ([1]; m1 = 0.00354): 0.0151 ± 0.002 S·m2/mol | molar conductivity ([1]; m1 = 0.00398): 0.015 ± 0.002 S·m2/mol | molar conductivity ([1]; m1 = 0.004717): 0.0149 ± 0.002 S·m2/mol | molar conductivity ([1]; m1 = 0.005305): 0.0148 ± 0.002 S·m2/mol | molar conductivity ([1]; m1 = 0.006188): 0.0146 ± 0.002 S·m2/mol | molar conductivity ([1]; m1 = 0.007186): 0.0145 ± 0.002 S·m2/mol | molar conductivity ([1]; m1 = 0.00808): 0.0143 ± 0.002 S·m2/mol | molar conductivity ([1]; m1 = 0.008774): 0.0142 ± 0.002 S·m2/mol

CCCC[P+](CCCC)(CCCC)CCCC.CS(=O)(=O)[O-] [tetrabutylphosphonium methanesulfonate] + NC=O
molar conductivity ([1]; m1 = 0.00084): 0.00215 ± 0.002 S·m2/mol | molar conductivity ([1]; m1 = 0.001471): 0.00201 ± 0.002 S·m2/mol | molar conductivity ([1]; m1 = 0.002032): 0.00186 ± 0.002 S·m2/mol | molar conductivity ([1]; m1 = 0.002641): 0.00177 ± 0.002 S·m2/mol | molar conductivity ([1]; m1 = 0.003191): 0.00167 ± 0.002 S·m2/mol | molar conductivity ([1]; m1 = 0.003793): 0.00159 ± 0.002 S·m2/mol | molar conductivity ([1]; m1 = 0.004583): 0.00148 ± 0.002 S·m2/mol | molar conductivity ([1]; m1 = 0.005305): 0.00139 ± 0.002 S·m2/mol | molar conductivity ([1]; m1 = 0.006146): 0.0013 ± 0.002 S·m2/mol | molar conductivity ([1]; m1 = 0.007072): 0.00119 ± 0.002 S·m2/mol | molar conductivity ([1]; m1 = 0.007937): 0.00113 ± 0.002 S·m2/mol | molar conductivity ([1]; m1 = 0.008497): 0.00107 ± 0.002 S·m2/mol

CCCC[P+](CCCC)(CCCC)CCCC.CS(=O)(=O)[O-] [tetrabutylphosphonium methanesulfonate] + C[N+](=O)[O-]
molar conductivity ([1]; m1 = 0.000865): 0.00765 ± 0.002 S·m2/mol | molar conductivity ([1]; m1 = 0.001335): 0.00741 ± 0.002 S·m2/mol | molar conductivity ([1]; m1 = 0.00177): 0.00723 ± 0.002 S·m2/mol | molar conductivity ([1]; m1 = 0.002409): 0.00698 ± 0.002 S·m2/mol | molar conductivity ([1]; m1 = 0.002979): 0.00674 ± 0.002 S·m2/mol | molar conductivity ([1]; m1 = 0.003623): 0.00653 ± 0.002 S·m2/mol | molar conductivity ([1]; m1 = 0.004197): 0.0063 ± 0.002 S·m2/mol | molar conductivity ([1]; m1 = 0.004926): 0.00611 ± 0.002 S·m2/mol | molar conductivity ([1]; m1 = 0.005713): 0.00588 ± 0.002 S·m2/mol | molar conductivity ([1]; m1 = 0.006624): 0.00563 ± 0.002 S·m2/mol | molar conductivity ([1]; m1 = 0.007619): 0.00541 ± 0.002 S·m2/mol | molar conductivity ([1]; m1 = 0.008608): 0.00518 ± 0.002 S·m2/mol

O [water]
viscosity [2]: 0.89 ± 0.01 mPa·s

CC#N [acetonitrile]
viscosity [2]: 0.34 ± 0.011 mPa·s | mass density [2]: 776.68 ± 0.2 kg/m3

CCCC[P+](CCCC)(CCCC)CCCC.CS(=O)(=O)[O-] [tetrabutylphosphonium methanesulfonate] + O
molar conductivity ([1]; m1 = 0.000818): 0.00412 ± 0.002 S·m2/mol | molar conductivity ([1]; m1 = 0.001471): 0.00388 ± 0.002 S·m2/mol | molar conductivity ([1]; m1 = 0.002032): 0.00366 ± 0.002 S·m2/mol | molar conductivity ([1]; m1 = 0.002641): 0.00348 ± 0.002 S·m2/mol | molar conductivity ([1]; m1 = 0.003191): 0.00334 ± 0.002 S·m2/mol | molar conductivity ([1]; m1 = 0.003793): 0.00317 ± 0.002 S·m2/mol | molar conductivity ([1]; m1 = 0.004583): 0.003 ± 0.002 S·m2/mol | molar conductivity ([1]; m1 = 0.005305): 0.00288 ± 0.002 S·m2/mol | molar conductivity ([1]; m1 = 0.006146): 0.00274 ± 0.002 S·m2/mol | molar conductivity ([1]; m1 = 0.007072): 0.00258 ± 0.002 S·m2/mol | molar conductivity ([1]; m1 = 0.007937): 0.00245 ± 0.002 S·m2/mol | molar conductivity ([1]; m1 = 0.008497): 0.0024 ± 0.002 S·m2/mol

CO [methanol]
viscosity [2]: 0.55 ± 0.01 mPa·s | mass density [2]: 786.61 ± 0.19 kg/m3

NC=O [formamide]
viscosity [2]: 3.3 ± 0.02 mPa·s | mass density [2]: 1129.22 ± 0.59 kg/m3
